Consider five molecules from ChEMBL document CHEMBL2169752, “Kallikrein protease activated receptor (PAR) axis: an attractive target for drug development” (J Med Chem, 2012).

SMILES strings stand for the structures. Numbered stars: 1 amine (or outer) side, 2 acyl side, 3 side chain; on linkers, the order of the positions; unused ones are H or OH. Square brackets hold non-standard residues; d marks the D form. Peptide text beside a SMILES is read from it. * marks the point of attachment. EDDnp = O=[N+]([O-])c1ccc(NCCN*)c([N+](=O)[O-])c1; X1 = NCC1CCC(C[C@H](N[*:1])C(=O)[*:2])CC1; 2Abz = Nc1ccccc1C(=O)O

For experiment [1], the target named is T1, Kallikrein-1 (Homo sapiens, UniProt P06870). As to the kind of experiment: Inhibition of human KLK1 using Pro-Phe-Arg-MCA as substrate for 2 mins by spectrophotometric analysis.
T1 sequence (P06870 whole entry): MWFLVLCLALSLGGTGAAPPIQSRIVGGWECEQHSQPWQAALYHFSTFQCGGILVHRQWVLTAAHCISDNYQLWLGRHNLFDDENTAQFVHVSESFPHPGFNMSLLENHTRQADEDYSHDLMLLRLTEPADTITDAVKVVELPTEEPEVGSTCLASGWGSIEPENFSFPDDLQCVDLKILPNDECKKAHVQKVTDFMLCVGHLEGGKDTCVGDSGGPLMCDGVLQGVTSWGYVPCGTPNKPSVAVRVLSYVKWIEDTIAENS
Experiment [2] addresses T2, Prostate-specific antigen (Homo sapiens, UniProt P07288).
T2 sequence (P07288 whole entry): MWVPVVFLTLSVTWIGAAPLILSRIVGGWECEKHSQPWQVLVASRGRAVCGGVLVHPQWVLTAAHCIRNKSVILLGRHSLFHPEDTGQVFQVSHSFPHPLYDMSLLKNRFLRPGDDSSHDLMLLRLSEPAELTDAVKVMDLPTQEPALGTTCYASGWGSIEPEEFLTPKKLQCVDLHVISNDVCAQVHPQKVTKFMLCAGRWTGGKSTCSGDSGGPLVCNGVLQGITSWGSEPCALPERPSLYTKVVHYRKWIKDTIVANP
As to the kind of experiment: Inhibition of KLK3.

Experiment [3] addresses T1, Kallikrein-1. In words: Inhibition of human KLK1.

As for `CC(=O)N[C@H](CCCCN)C(=O)N[C@@H](Cc1ccccc1)C(=O)N[C@@H](Cc1ccccc1)C(=O)N1CCC[C@H]1C(=O)N[C@@H](CC(C)C)C(=O)N[C@@H](CCC(=O)O)C(N)=O`, the Ki in experiment [1] is 8 nM. `Cc1c(-c2nc3ccccc3c(=O)o2)cccc1[N+](=O)[O-]` displayed an inhibition constant Ki in experiment [2] of 300 nM. The same measure, in the same setting: the value for `COc1ccc(C(=O)n2nc(-c3cccnc3)nc2C)cc1OC` was 500 nM. Regarding `N=C(N)NCCC[C@H](NC(=O)[C@H](CO)NC(=O)[C@H](CC1CCC(CN)CC1)NC(=O)[C@H](Cc1ccccc1)NC(=O)c1ccccc1N)C(=O)N[C@@H](CCC(N)=O)C(=O)NCCNc1ccc([N+](=O)[O-])cc1[N+](=O)[O-]` (stereo not given in full) (H-[2Abz]F[X1]SRQ-EDDnp), the inhibition constant Ki in experiment [3] is 50 nM. This lies in the double-digit nanomolar range. Same read-out and setting: the value for `NC(=O)[C@H](CCCN=C(N)N)NC(=O)[C@H](CO)NC(=O)[C@H](CC1CCC(N)CC1)NC(=O)Cc1ccccc1` (mixture of isomers) was 110 nM.
